From patent US20110206607A1, “IMIDAZOL (1,2-A)PYRIDINES AND RELATED COMPOUNDS WITH ACTIVITY AT CANNABINOID CB2 RECEPTORS” (priority 2007, published 2011)

Each molecule was assayed against T1, human CB2 (Homo sapiens, UniProt P34972) (assay: CB2 receptor binding assay, block of [3H]-CP 55,940 binding). Conditions: membranes of HEK-293T cells transfected with human CB2 cDNA; 1.5 nM [3H]-CP 55,940.
T1 construct: expressed in transfected cells; host or cells: HEK-293T (transient transfection, membrane preparation)
T1 sequence (P34972 whole entry): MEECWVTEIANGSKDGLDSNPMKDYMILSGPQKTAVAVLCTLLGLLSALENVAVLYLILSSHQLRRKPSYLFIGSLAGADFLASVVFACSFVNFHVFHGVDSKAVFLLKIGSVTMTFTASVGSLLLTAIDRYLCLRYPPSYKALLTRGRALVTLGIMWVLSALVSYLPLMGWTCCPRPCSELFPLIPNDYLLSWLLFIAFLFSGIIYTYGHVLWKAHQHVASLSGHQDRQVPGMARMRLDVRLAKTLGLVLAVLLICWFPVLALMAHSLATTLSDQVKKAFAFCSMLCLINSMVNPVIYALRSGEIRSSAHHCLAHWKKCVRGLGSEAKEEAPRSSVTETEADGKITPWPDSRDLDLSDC
Description: Membrane preparation—HEK-293T cells were cultured according to ATCC (Manassas, Va.) guidelines and transfected with human CB2 cDNA (SEQ ID NO:1) (Genbank X74328), operably linked to the SV40 promoter, using Polyfect (Qiagen, Valencia, Calif.) or Fugene (Roche, Nutley, N.J.) according to manufacturer's instructions. 48 h after transfection cells were harvested in ice cold membrane buffer (20 mM HEPES, 6 mM MgCl2, 1 mM EDTA, pH 7.2) using a cell scraper. Cells were transferred to a nitrogen cavitation chamber and a pressure of […] was applied for 30 min. The pressure was released and the cell debris was collected and centrifuged at 1000 g at 4° C. for 10 min. The supernatant was collected and the spin was repeated until the supernatant was free of precipitate. Membranes were then pelleted by centrifugation at 12.000 g at 4° C. for 20 min. Membranes were resuspended in an appropriate amount of membrane buffer. The membrane concentration was determined using a BioRad (Hercules, Calif.) protein assay dye reagent according to manufacturer's instructions. Membranes were diluted to 1 mg/ml and aliquots snap-frozen in liquid nitrogen and store at −80° C.
Binding assay—0.5-10 ng of membranes were incubated in binding buffer (50 mM Tris, 0.5 mM EDTA, 0.1% BSA, pH 7.4) in the presence of 1.5 nM radioligand ([^3H]-CP 55,940 Perkin Elmer) and varying concentrations of ligands (total volume 100 μL in a 96 well plate). Membranes were filtered onto a 96 well GF/B filterplate (Packard Bioscience, Shelton, Conn.) and washed with […] wash buffer (25 mM HEPES, 1 mM CaCl2, 5 mM MgCl2, 0.25M NaCl) using a Filtermate 196 Harvester (Packard Instruments, Downers Grove, Ill.). The filter plates were dried under a heat lamp before addition of 50 μL of scintillation fluid to each well (Microscint 20, Packard, Shelton, Conn.). Plates were counted on a Topcount NXT (Packard, Shelton, Conn.).
Data Analysis—Graphs were plotted and KD values were determined by nonlinear regression analysis using Prism software (GraphPad version 4.0, San Diego, Calif., USA).
A pKi of 7.4 was found for `Cc1ccc2nc(-c3c(F)cccc3F)c(Nc3ccc4c(c3)OCCO4)n2c1` [CR-48] in this work.
A pKi of 7.9 was found for `Cc1cc(O)cc(C)c1-c1nc2cccc(OCCF)n2c1Nc1ccc2c(c1)OCCO2` [CR-27] in this work.
A pKi of 6.4 was found for `COc1ccnc2nc(-c3c(F)cccc3Cl)c(Nc3ccc4c(c3)OCCO4)n12` [CR-104] in this work.
A pKi of 8.6 was found for `COc1cccc2nc(-c3c(F)cc(OCF)cc3F)c(Nc3ccc4c(c3)OCCO4)n12` [CR-3] in this work.
A pKi of 9.3 was found for `COc1cccc2nc(-c3c(F)ccc(OCCF)c3Cl)c(Nc3ccc4c(c3)OCCO4)n12` [CR-9] in this work.
A pKi of 5.8 was found for `COc1cccc(OC)c1-c1nc2cnccn2c1Nc1ccc2c(c1)OCCO2` [CR-118] in this work.
A pKi of 6.5 was found for `Cc1cccn2c(Nc3ccc4c(c3)OCCO4)c(-c3ccccn3)nc12` [CR-101] in this work.
A pKi of 8.2 was found for `COc1cccc2nc(-c3c(Cl)ncnc3Cl)c(Nc3ccc4c(c3)OCCO4)n12` [CR-22] in this work.
A pKi of 7.3 was found for `Cc1cccc2nc(-c3c(F)cccc3Cl)c(Nc3ccc4c(c3)OCO4)n12` [CR-127] in this work.
A pKi of 8.7 was found for `COc1cccc2nc(-c3c(F)cccc3Cl)c(Nc3ccc4c(c3)OCCO4)n12` [CR-14] in this work.
A pKi of 8.6 was found for `COc1ccc2nc(-c3c(F)ccc(OCF)c3Cl)c(Nc3ccc4c(c3)OCCO4)n2c1` [CR-16] in this work.
A pKi of 7.9 was found for `CC(C)Oc1cccc2nc(-c3c(F)cccc3Cl)c(Nc3ccc4c(c3)OCCO4)n12` [CR-29] in this work.
A pKi of 8.3 was found for `COc1cccc2nc(-c3c(F)cc(O)cc3Cl)c(Nc3ccc4c(c3)OCCO4)n12` [CR-138] in this work.
A pKi of 6.0 was found for `COc1cccc(OC)c1-c1nc2c(C)cccn2c1Nc1ccc2c(c1)OCCO2` [CR-123] in this work.
A pKi of 7.7 was found for `Cc1cc(OCCF)cc(C)c1-c1nc2cccc(F)n2c1Nc1ccc2c(c1)OCCO2` [CR-36] in this work.
A pKi of 6.6 was found for `Fc1cccc(F)c1-c1nc2cnccn2c1Nc1ccc2c(c1)OCCO2` [CR-92] in this work.
A pKi of 7.4 was found for `FCCOc1cccc2nc(-c3c(F)cncc3F)c(Nc3ccc4c(c3)OCCO4)n12` [CR-7] in this work.
A pKi of 7.5 was found for `FCCOc1ccc2nc(-c3c(F)cccc3Cl)c(Nc3ccc4c(c3)OCCO4)n2c1` [CR-41] in this work.
A pKi of 8.8 was found for `COc1cccc2nc(-c3c(F)ccc(OCCF)c3F)c(Nc3ccc4c(c3)OCCO4)n12` [CR-12] in this work.
A pKi of 6.2 was found for `COc1cccc(OC)c1-c1nc2ccccn2c1Nc1ccc2c(c1)OCCO2` [CR-116] in this work.
A Ki of 1.58 nM was found for `COc1cccc2nc(-c3c(F)ccc(OCC[18F])c3F)c(Nc3ccc4c(c3)OCCO4)n12` [CR-133] in this work.
A pKi of 6.1 was found for `COc1cc(-c2nc3cc(C)ccn3c2Nc2ccc3c(c2)OCO3)cc(F)c1O` [CR-130] in this work.
A pKi of 7.3 was found for `Cc1cccc(C)c1-c1nc2ccccn2c1Nc1ccc2c(c1)OCCO2` [CR-51] in this work.
A pKi of 6.8 was found for `COc1cc(-c2nc3cnccn3c2Nc2ccc3c(c2)OCCO3)ccc1O` [CR-75] in this work.
A pKi of 6.3 was found for `COc1cc(O)ccc1-c1nc2ncccn2c1Nc1ccc2c(c1)OCCO2` [CR-111] in this work.
